This is an account of results in patent US20230264009A1, “DISINFECTING CAP KIT FOR LUER ACCESS DEVICES” (SterileCare Inc., priority 2022, published 2023).

One test deals with Candida albicans SK4b. The test is described as follows: MIC, micro broth dilution. Format: cell-based. The following applies: alone; C. albicans SK4b; 24 h. Here is the method:
(§1) An assay was made using a minimum inhibitory concentration (MIC) and minimum bactericidal concentration (MBC) and minimum fungicidal concentration (MFC) determination. The MIC was determined by the micro broth dilution method in 96-well plates. Serial two-fold dilutions of tetrasodium EDTA (from 2% to 0.015%), ethanol (from 50% to 0.1%) and chlorhexidine HCl (from 100 µg/mL to 0.025 µg/mL) were prepared in MH broth with a final volume of 90 µL per well. A 10 µL containing 1 × 10^5 bacterial cells or 2 × 10^3 fungal cells were added to each well. The inoculated plates were covered with a lid, sealed with Parafilm, and incubated for 24 h at 37° C. with slight rocking on a tilting platform shaker. After incubation, the optical density at 600 nm (OD 600 ) of the cultures in each well was measured using an xMark™ Microplate Absorbance Spectrophotometer (Bio-Rad). […] MBCs and MFCs were determined by transferring 100 µL from each well with no apparent growth onto appropriate agar plates, followed by incubation for 24 h at 37° C.
(In general: Dilution methods test growth across graded concentrations, often in twofold steps.)

The next test relates to Escherichia coli ON29. The test can be described thus: MIC, micro broth dilution. As to conditions: alone; E. coli ON29; 24 h. Format: cell-based. Here is the method: as §1
The next test has as its system Proteus mirabilis ON153. The test can be described thus: MIC, micro broth dilution. Type of test: cell-based. As to conditions: alone; P. mirabilis ON153; 24 h. The protocol:
as §1

Test [1] has as its system Pseudomonas aeruginosa SK1. The test is described as follows: MIC, micro broth dilution. Format: cell-based. As to conditions: alone; P. aeruginosa SK1; 24 h. Here is the method:
as §1

In the next test the test system is Serratia marcescens SK2. The test can be described thus: MIC, micro broth dilution. Type of test: cell-based. The following applies: alone; S. marcescens SK2; 24 h. Here is the method:
as §1

Test [2] has as its system Staphylococcus aureus ON89. The test can be described thus: MIC, micro broth dilution. Type of test: cell-based. As to conditions: alone; S. aureus ON89; 24 h. Here is the method:
as §1

The test system of test [3] is Staphylococcus epidermidis ON170. The test is described as follows: MIC, micro broth dilution. Format: cell-based. The following applies: alone; S. epidermidis ON170; 24 h. The protocol:
as §1

Test [4] concerns Stenotrophomonas maltophilia ON17. The test can be described thus: MIC, micro broth dilution. Type of test: cell-based. The following applies: alone; S. maltophilia ON17; 24 h. Here is the method:
as §1

In another test the test system is E. coli SK2. The test can be described thus: MIC, micro broth dilution. Format: cell-based, Escherichia coli. As to conditions: alone, 24 h. The protocol: as §1
The subject of test [5] is C. albicans ON47. The test is described as follows: MIC, micro broth dilution. Type of test: cell-based, Candida albicans. As to conditions: alone, 24 h. Here is the method: as §1
Test [6] deals with C. albicans ON47. The test can be described thus: MBC/MFC determination. Type of test: cell-based, Candida albicans. As to conditions: alone. The protocol:
as §1

The subject of test [7] is C. albicans ON47. The test can be described thus: Checkerboard titration, FICI. Type of test: cell-based, Candida albicans. The protocol:
A fourth composition and solution included tetrasodium EDTA with ethanol or chlorhexidine HCl. This fourth composition and solution were created using checkerboard titration methods using micro broth dilution in 96-well microtiter plates. The concentrations of antimicrobials used were based on previously determined MIC values. Briefly, 200 µL of two-fold dilutions of tetrasodium EDTA and ethanol or chlorhexidine HCl were prepared in MH or MH II broth with standardized cell suspension. […] Microtiter plates were incubated at 37° C. for 24 h, and the results were analyzed. Each test was performed in duplicate and included a growth control without adding any antimicrobials.

Another test relates to MRSA ON184 biofilm. The test is described as follows: MBEC Assay, 48-h biofilm, 24 h exposure. Type of test: cell-based, Staphylococcus aureus. Here is the method:
A biofilm cultivation cell composition was provided. This fifth composition was created using an MBEC Assay® biofilm inoculator, consisting of a polystyrene lid with 96 downward-protruding pegs and a corresponding base used to grow biofilms. A standardized inoculum was diluted in an appropriate biofilm growth medium to achieve a viable cell count of 1.5 × 10^6 CFU/mL of bacterial cells or […] CFU/mL of fungal cells. Then, 150 µL of this inoculum was transferred into each appropriate well, and the peg lids were inserted into the microtiter plates. The plates were sealed with Parafilm and were incubated at optimum temperature for 48 h with slight rocking for bacteria and shaking at 200 rpm for fungal strains. After incubation, the peg lid was removed from the base and rinsed twice with sterile phosphate-buffered saline (PBS) for 2 min to remove loosely attached non-sessile cells. Before the antimicrobial challenge, the pegs in column 1 (n = 8) were considered the biofilm growth control; these pegs were removed from the lids, placed into 200 µL of recovery medium, and analyzed for starting biofilm cell numbers as described below. […] MBEC values were determined as the minimum concentration of antimicrobials that yielded a viable cell count at or lower than the 125 CFU/mL detection limit.

For test [8], the system named is Pseudomonas aeruginosa SK1 biofilm. The test can be described thus: FBEC index, checkerboard dilution on biofilms. The following applies: P. aeruginosa SK1 biofilm. Format: cell-based.
Protocol: In step (4), microtiter plates are incubated at 37° C. for 24 h. then (6), after incubation, the bacterial and fungal cells were dislodged from the pegs into the recovery medium described above.
Three 10-µL aliquots, for a total of 30 µL from each well of recovery medium, were spotted on MH agar plates and incubated for 24 h at 37° C. […] The FBEC determination is a modification of the FICI.
Setting [9] is: tetrasodium EDTA + chlorhexidine HCl.

With `O=C([O-])CN(CCN(CC(=O)[O-])CC(=O)[O-])CC(=O)[O-].[Na+].[Na+].[Na+].[Na+]` [EDTA, tetrasodium EDTA], the MIC with Candida albicans SK4b stood at 1 % w/v; against Escherichia coli ON29 it was 0.5 % w/v; in the test on Proteus mirabilis ON153, 1 % w/v; in test [1], 0.25 % w/v; against Serratia marcescens SK2, 2 % w/v; in test [2], 0.063 % w/v. The MIC is listed as 0.063 % w/v in test [3], 0.063 % w/v in test [4], 0.5 % w/v in the test with E. coli SK2 and 1 % w/v in the test with C. albicans ON47 [5]. Further, the MBC/MFC in the test with C. albicans ON47 [6] worked out at 1 % w/v. Further, the “Concentration in combination giving FICI” value is reported as 0.125 % w/v in the test on C. albicans ON47 [7] (setting [9]) and 0.25 % w/v with C. albicans ON47 [7] (tetrasodium EDTA + ethanol). In the test on MRSA ON184 biofilm, this compound displayed an MBEC of 2 % w/v. For the same compound, the “FBEC (concentration in combination)” value in test [8] (setting [9]) is 0.25 % w/v; in test [8] (tetrasodium EDTA + ethanol), 0.125 % w/v.
